Consider twelve compounds from patent US6706740B2, “Fungicidal heterocyclic aromatic amides and their compositions, methods of use and preparation” (Dow AgroSciences LLC, priority 1999, dated 2004).

Read-outs that look alike come from different tables or passages of the source.

Test [1] deals with Magnaporthe grisea (Pyricularia oryzae—PYRIOR). Put plainly: microbe, parasite or virus in culture. The class given is cell-based. The following applies: Pyricularia oryzae, read-out: PYRIOR in vitro Growth Inhibition.
The subject of test [2] is Rhizoctonia solani (RHIZSO). The test can be described thus: microbe, parasite or virus in culture. The class given is cell-based. The following applies: Rhizoctonia solani, read-out: RHIZSO in vitro Growth Inhibition.
Test [3] relates to Mycosphaerella graminicola (Septoria tritici—SEPTTR). The test can be described thus: In vitro fungal growth inhibition, Mycosphaerella graminicola (SEPTTR). Conditions: Zymoseptoria tritici, read-out: SEPTTR in vitro Growth Inhibition. The class given is cell-based.
Test [4] relates to Stagonospora nodorum (Leptosphaeria nodorum—LEPTNO). The test can be described thus: In vitro fungal growth inhibition, Stagonospora nodorum (LEPTNO). The class given is cell-based. Conditions: Leptosphaeria, read-out: LEPTNO in vitro Growth Inhibition.
The next test relates to Ustilago maydis (USTIMA). Put plainly: microbe, parasite or virus in culture. The class given is cell-based. Conditions: Mycosarcoma maydis, read-out: USTIMA in vitro Growth Inhibition.
Test [5] relates to Phytophthora infestans (PHYTIN). Put plainly: microbe, parasite or virus in culture. The class given is cell-based. Conditions: Phytophthora infestans, read-out: PHYTIN in vitro Growth Inhibition.
Test [6] has as its system Phytophthora infestans—PHYTIN. Put plainly: whole plant or invertebrate. The class given is in vivo. The following applies: Phytophthora, in Solanum lycopersicum, 24 h, read-out: PHYTIN in vivo 1 Day Protectant.
For test [7], the system named is Puccinia recondita—PUCCRT. The test can be described thus: Brown Rust of Wheat, in vivo whole plant, 24 Hour Protectant. Conditions: for pest or weed control at 100 ppm: Puccinia, read-out: PUCCRT in vivo 1 Day Protectant.
A further test relates to Erysiphe graminis—ERYSGT. The test can be described thus: Powdery Mildew of Wheat, in vivo whole plant, 24 Hour Protectant. Conditions: Erysiphe, read-out: ERYSGT in vivo 1 Day Protectant.
Another test relates to Septoria tritici—SEPTTR. The test can be described thus: Leaf Blotch of Wheat, in vivo whole plant, 24 Hour Protectant. The following applies: for pest or weed control at 100 ppm: Zymoseptoria tritici, 24 h, control of fungal infection vs untreated plants, read-out: SEPTTR in vivo 1 Day Protectant.
For test [8], the system named is Leptosphaeria nodorum—LEPTNO. The test can be described thus: Glume Blotch of Wheat, in vivo whole plant, 24 Hour Protectant. The following applies: for pest or weed control at 100 ppm: Leptosphaeria, control of fungal infection vs untreated plants, read-out: LEPTNO in vivo 1 Day Protectant.
The mark [9] stands for this setting: 100 ppm spray, wheat, 24 hour protectant, control of fungal infection vs untreated plants.
Where [10] appears, read: 100 ppm spray, wheat, 24 hour protectant.
[11] abbreviates: 100 ppm spray, 24 hour protectant, wheat, control of fungal infection vs untreated plants.
Where [12] appears, read: 100 ppm spray, 24 hour protectant, wheat.
Where [13] appears, read: wheat plants sprayed at 100 ppm, inoculated after 24 hours, control of fungal infection vs untreated plants.
Setting [14] is: wheat plants sprayed at 100 ppm, inoculated after 24 hours.
Setting [15] is: 100 ppm spray, wheat, 24 hour protectant, % control of fungal infection vs untreated plants.

On to `COc1ccnc(C(=O)Nc2ccccc2Oc2cccc(Cl)c2)c1O` [Compound 437], for which the inhibition at 25 ppm in test [1] was less than 80%; in test [2], less than 80%; in [3] (25 ppm in growth medium), greater than 80%; in [4] (25 ppm in growth medium), less than 80%; in the test on Ustilago maydis (USTIMA), less than 80%; in test [5], less than 80%. Besides, the pest or weed control at 100 ppm in [6] was 25 to 74%; in test [7] (setting [9]), less than 25%; with Erysiphe graminis—ERYSGT (setting [9]), less than 25%; in the test with Septoria tritici—SEPTTR (setting [10]), less than 25%; in test [8] (setting [10]), less than 25%.

In the case of `O=C(NCCc1ccc(Cl)cc1)c1ncccc1O` [Compound 233, N-(2-(4-CHLOROPHENYL)ETHYL)-3-HYDROXYPYRIDINE-2-CARBOXAMIDE], the inhibition at 25 ppm in [1] was greater than 80%; in [2], less than 80%; in test [3] (25 ppm in growth medium), greater than 80%; in test [4] (25 ppm in growth medium) it was greater than 80%; with Ustilago maydis (USTIMA) it was greater than 80%; in test [5] it was greater than 80%. Further, the pest or weed control at 100 ppm in test [6] is less than 25%; in test [7] (setting [11]) it was less than 25%; in the test with Erysiphe graminis—ERYSGT (setting [11]), less than 25%; in the test with Septoria tritici—SEPTTR (setting [12]), 25 to 74%; in test [8] (setting [12]) it was less than 25%.

For the compound `O=C(Nc1cccc(Oc2cccc(C(F)(F)F)c2)c1)c1nc(Br)ccc1O` [Compound 495], the inhibition at 25 ppm (in [1]; in test [2]; in [3] (25 ppm in the growth medium); in test [4] (25 ppm in the growth medium); in the test with Ustilago maydis (USTIMA); in [5]) was less than 80% each time. Moreover, the pest or weed control at 100 ppm is less than 25% in test [6]; 25 to 74% in [7] (setting [13]); 25 to 74% with Erysiphe graminis—ERYSGT (setting [13]); 25 to 74% with Septoria tritici—SEPTTR (setting [14]); less than 25% in test [8] (setting [14]).

With `COc1ccnc(C(=O)NC(C)c2ccc(C(F)(F)F)cc2)c1O` (stereo not drawn) [Compound 247], the inhibition at 25 ppm is less than 80% in [1]; less than 80% in test [2]; greater than 80% in [3] (25 ppm in growth medium); greater than 80% in [4] (25 ppm in growth medium); less than 80% with Ustilago maydis (USTIMA); less than 80% in [5]. Besides, the pest or weed control at 100 ppm is less than 25% in test [6]; less than 25% in [7] (setting [11]); less than 25% in the test on Erysiphe graminis—ERYSGT (setting [11]); 25 to 74% in the test on Septoria tritici—SEPTTR (setting [12]); 25 to 74% in test [8] (setting [12]).

In the case of `COc1ccnc(C(=O)NC2C[C@H](C)O[C@](C)(Cc3ccccc3)C2)c1O` (stereo partly drawn) [Compound 313], the inhibition at 25 ppm (in test [1]; in test [2]; in test [3] (25 ppm in growth medium); in test [4] (25 ppm in growth medium); with Ustilago maydis (USTIMA); in [5]) was less than 80% each time. Further, the pest or weed control at 100 ppm in [6] is less than 25%; in [7] (setting [11]), 25 to 74%; with Erysiphe graminis—ERYSGT (setting [11]) it was 25 to 74%; in the test on Septoria tritici—SEPTTR (setting [12]), 25 to 74%; in test [8] (setting [12]), 25 to 74%.

In the case of `COc1ccnc(C(=O)Nc2ccc(Oc3cccc(C#N)c3)cc2)c1O` [Compound 421], the inhibition at 25 ppm (in test [1]; in test [2]; in test [3] (25 ppm in growth medium); in [4] (25 ppm in growth medium); in the test on Ustilago maydis (USTIMA); in [5]) was less than 80% each time. The pest or weed control at 100 ppm in [6] was less than 25%; in test [7] (setting [9]), less than 25%; with Erysiphe graminis—ERYSGT (setting [9]), less than 25%; in the test with Septoria tritici—SEPTTR (setting [10]) it was less than 25%; in [8] (setting [10]), 25 to 74%.

In the case of `COc1ccnc(C(=O)NCC2COCCOCCOCCOCCO2)c1O` (stereo not drawn) [Compound 245], the inhibition at 25 ppm (in test [1]; in test [2]; in test [3] (25 ppm in growth medium); in [4] (25 ppm in growth medium); with Ustilago maydis (USTIMA); in [5]) was less than 80% each time. Further, the pest or weed control at 100 ppm in test [6] is less than 25%; in test [7] (setting [11]) it was less than 25%; with Erysiphe graminis—ERYSGT (setting [11]), less than 25%; with Septoria tritici—SEPTTR (setting [12]), 25 to 74%; in test [8] (setting [12]), 25 to 74%.

`COc1ccnc(C(=O)N[C@@H]2CC3CC2C[C@@H]3COCc2cccc(C(F)(F)F)c2)c1O` (stereo partly drawn) [Compound 297]: the inhibition at 25 ppm is greater than 80% in test [1]; greater than 80% in [2]; greater than 80% in [3] (25 ppm in growth medium); greater than 80% in test [4] (25 ppm in growth medium); less than 80% in the test on Ustilago maydis (USTIMA); less than 80% in [5]. Besides, the pest or weed control at 100 ppm is less than 25% in test [6]; less than 25% in test [7] (setting [11]); less than 25% in the test with Erysiphe graminis—ERYSGT (setting [11]); 25 to 74% with Septoria tritici—SEPTTR (setting [12]); 25 to 74% in [8] (setting [12]).

On to `COc1ccnc(C(=O)N[C@H]2COC(=O)[C@H](Cc3ccccc3)[C@@H](OC(=O)CC(C)C)[C@H](C)OC2=O)c1OC(C)=O` [Compound 702], for which the inhibition at 25 ppm in test [1] was less than 80%; in [2], less than 80%; in test [3] (25 ppm in growth medium) it was less than 80%; in [4] (25 ppm in growth medium), greater than 80%; in the test with Ustilago maydis (USTIMA), less than 80%; in test [5], less than 80%. The pest or weed control at 100 ppm (in [6]; with Erysiphe graminis—ERYSGT (setting [15])) was less than 25% in each case. Also, the “PUCCRT in vivo 1 Day Protectant” value in [7] (setting [15]) is “+ +”. Besides, the “SEPTTR in vivo 1 Day Protectant” value in the test on Septoria tritici—SEPTTR (setting [15]) was “+ +”. The “LEPTNO in vivo 1 Day Protectant” value in test [8] (setting [15]) was “+ +”.

Turning to `COc1ccnc(C(=O)Nc2cccc(Oc3ccc(C(F)(F)F)cc3)c2)c1O` [Compound 423], the inhibition at 25 ppm was greater than 80% in [1]; less than 80% in test [2]; less than 80% in [3] (25 ppm in growth medium); less than 80% in test [4] (25 ppm in growth medium); less than 80% in the test with Ustilago maydis (USTIMA); less than 80% in [5]. The pest or weed control at 100 ppm is less than 25% in test [6]; 25 to 74% in [7] (setting [9]); less than 25% in the test on Erysiphe graminis—ERYSGT (setting [9]); 25 to 74% with Septoria tritici—SEPTTR (setting [10]); 25 to 74% in test [8] (setting [10]).

On to `CC1(C)CC(NC(=O)c2nccc(Cl)c2O)CC(C)(C)C1` [Compound 480], for which the inhibition at 25 ppm in test [1] was greater than 80%; in [2], less than 80%; in test [3] (25 ppm in the growth medium), less than 80%; in test [4] (25 ppm in the growth medium), less than 80%; in the test with Ustilago maydis (USTIMA) it was less than 80%; in test [5], less than 80%. For the same compound, the pest or weed control at 100 ppm was less than 25% in test [6]; less than 25% in [7] (setting [13]); less than 25% with Erysiphe graminis—ERYSGT (setting [13]); less than 25% in the test on Septoria tritici—SEPTTR (setting [14]); 25 to 74% in test [8] (setting [14]).

Consider `COc1ccnc(C(=O)NC(COC(=O)C(C)Cc2ccccc2)C(=O)OC(C)C)c1O` (stereo not drawn) [Compound 351], for which the inhibition at 25 ppm in test [1] was less than 80%; in test [2], less than 80%; in test [3] (25 ppm in growth medium), less than 80%; in [4] (25 ppm in growth medium), less than 80%; in the test with Ustilago maydis (USTIMA), greater than 80%; in test [5], less than 80%. The pest or weed control at 100 ppm in [6] is less than 25%; in the test on Erysiphe graminis—ERYSGT (setting [9]), less than 25%; with Septoria tritici—SEPTTR (setting [10]), less than 25%; in test [8] (setting [10]), 25 to 74%. The “PUCCRT in vivo 1 Day Protectant” value in test [7] (setting [9]) is “+ +”.

The inhibition is the change of the read-out against control, counted positive when it falls.
